These results are taken from patent US20080206356A1, “Pharmaceutical Compositions for the Treatment of Neurodegenerative Disorders” (UNIVERSIDAD DE BARCELONA, priority 2005, published 2008).

The target in series [1] is T1, GSK3-β (Rattus norvegicus, UniProt P18266).
T1 construct: Western blot analysis of Ser-9 phosphorylation of GSK3 in rat brain extracts; from tissue; host or cells: rat brain (Wistar rats: healthy or STZ-diabetic)
The experiment in a line: Ser-9 phosphorylation of GSK3-β in brain of STZ-diabetic rats intraperitoneally injected with tungstate. The class given is in vivo. Particulars: tungstate 50 or 75 mg/kg intraperitoneally, FIG. 3B. How it is done:
(§1) In FIG. 3 the effect of tungstate (W) on the phosphorylation of tau from brains obtained from STZ-diabetic rats is shown. A) Western blot analysis of Ser-9 phosphorylation of GSK3 in rat brain extracts from control healthy rats intraperitoneally injected with saline (Ctrl) or tungstate (W) (50 mg/kg). […] B) as in A), STZ-diabetic rats intraperitoneally injected with 50 or 75 mg/kg of tungstate. C) Western blot analysis of the phosphorylation of tau at the site recognized by the tau-1 antibody in brain extracts from control healthy rats intraperitoneally injected with saline (Ctrl) or tungstate (W) (50 mg/kg). […] D) as in C), STZ-diabetic rats intraperitoneally injected with 50 or 75 mg/kg of tungstate. The data correspond to mean values and the error bars represent the standard deviation of three to five independent experiments.
(§2) The analysis of the degree of the phosphorylation of tau and GSK3 was performed by Western blot with the antibodies mentioned above. […] The protein concentration was determined using the BCA protein assay (Pierce, Rockford, Ill.). […]

Series [2] concerns tau. Kind of series: tau phosphorylation (tau-1 site) in brain of healthy rats intraperitoneally injected with tungstate. Particulars: tungstate 50 mg/kg intraperitoneally vs saline, FIG. 3C. It is filed as in vivo, rat. The procedure: as §1, §2
For series [3], the target named is T2, GSK3 (Rattus norvegicus, UniProt P18266).
T2 construct: Western blot analysis of Ser-9 phosphorylation of GSK3 in rat brain extracts; from tissue; host or cells: rat brain (Wistar rats: healthy or STZ-diabetic)
The experiment in a line: Ser-9 phosphorylation of GSK3 in brain of healthy rats intraperitoneally injected with tungstate. The class given is in vivo. Particulars: tungstate 50 mg/kg intraperitoneally vs saline, FIG. 3A. The procedure: as §1, §2

The test system of series [4] is tau. The experiment in a line: phosphorylation of tau in brains of healthy Wistar rats intracranially injected with tungstate. It is filed as in vivo, rat. Particulars: intracranial 0.1 mM tungstate vs saline, FIG. 2A. How it is done: (§3) In FIG. 2 the effect of tungstate (W) on the phosphorylation of tau in brains from healthy and insulin-resistant rats is shown. A) Western blot analysis of the phosphorylation of GSK3 (left) and tau (right) from brain extracts of healthy rats intracranially injected with saline (−) or 0.1 mM tungstate (+). Phosphorylation was measured with antibodies against Ser-9 phosphorylated GSK3-β (pS9), and tau phosphorylated at threonine 231 (AT180) or unphosphorylated at serines 198, 199 and 202 (tau-1). The total amount of GSK3 and tau was determined through the interaction with antibodies raised against GSK3 and against tau (7.51), respectively. […] Phosphorylation was measured using the antibody that reacts with Ser-9 phosphorylated GSK3-β (pS9-GSK3-β) or with the tau-1 and AT180 antibodies. The total amounts of GSK3 and tau were determined as in A. C) Insulin-resistant rats were injected intracranially with saline (−) or 0.1 mM tungstate (+), their brains were then isolated and homogenised, and Western blots of the brain proteins were performed with the tau-1, and AT180 antibodies. The total amount of tau protein was determined using the 7.51 antibody. […]
as §2

Series [5] concerns the target T2, GSK3. Kind of series: phosphorylation of GSK3 in brains of healthy Wistar rats intracranially injected with tungstate. It is filed as in vivo. Particulars: intracranial 0.1 mM tungstate vs saline, FIG. 2A. The procedure:
as §3, §2

Series [6] concerns tau. The experiment in a line: tau phosphorylation (tau-1 site) in brain of STZ-diabetic rats intraperitoneally injected with tungstate. Particulars: tungstate 50 or 75 mg/kg intraperitoneally, FIG. 3D. It is filed as in vivo, rat. How it is done: as §1, §2
Series [7] deals with tau. Kind of series: phosphorylation of tau in brains of insulin-resistant (high fat diet) rats injected intraventricularly with tungstate. Particulars: 5 μl of 110 nM sodium tungstate intraventricularly (FIG. 2 legend: 0.1 mM), 24 hours, cortex, FIG. 2C, dihydrate. It is filed as in vivo, rat. The procedure: In FIG. 2 the effect of tungstate (W) on the phosphorylation of tau in brains from healthy and insulin-resistant rats is shown. A) Western blot analysis of the phosphorylation of GSK3 (left) and tau (right) from brain extracts of healthy rats intracranially injected with saline (−) or 0.1 mM tungstate (+). Phosphorylation was measured with antibodies against Ser-9 phosphorylated GSK3-β (pS9), and tau phosphorylated at threonine 231 (AT180) or unphosphorylated at serines 198, 199 and 202 (tau-1). The total amount of GSK3 and tau was determined through the interaction with antibodies raised against GSK3 and against tau (7.51), respectively. B) Western blot analysis of the phosphorylation in brain of GSK3-β (left) and tau (right) in control (Ctrl) and insulin-resistant (IR) rats. Phosphorylation was measured using the antibody that reacts with Ser-9 phosphorylated GSK3-β (pS9-GSK3-β) or with the tau-1 and AT180 antibodies. The total amounts of GSK3 and tau were determined as in A. C) Insulin-resistant rats were injected intracranially with saline (−) or 0.1 mM tungstate (+), their brains were then isolated and homogenised, and Western blots of the brain proteins were performed with the tau-1, and AT180 antibodies. The total amount of tau protein was determined using the 7.51 antibody. A decrease in the interaction with AT180 and an increase for that of tau-1 were observed
The analysis of the degree of the phosphorylation of tau and GSK3 was performed by Western blot with the antibodies mentioned above. Cells were homogenized at 4° C. in 50 mM 4-(2-hydroxyethyl)piperazine-1-ethanesulfonic acid (HEPES), pH 7.4, 10 mM ethylenediaminetetraacetic acid (EDTA), 0.1% 4-(1,1,3,3-tetramethylbutyl)phenyl-polyethylene glycol (triton X-100), 20 mM NaF, 0.1 mM sodium orthovanadate, 1 mM phenylmethanesulphonylfluoride, 10 μg/ml Isovaleryl-Val-Val-4-amino-3-hydroxy-6-methylheptanoyl-Ala-4-amino-3-hydroxy-6-methylheptanoic Acid (Pepstatin A); and 10 μg/ml aprotinin. The cell lysates were centrifuged at 10,000 g for 30 min at 4° C. and then heated at 100° C. for 5 min in electrophoresis sample buffer. The protein concentration was determined using the BCA protein assay (Pierce, Rockford, Ill.). Proteins were fractionated by sodium dodecylsulfate-polyacrylamide gel electrophoresis (SDS-PAGE) on 10% gels and transferred to nitrocellulose membranes (Schleicher & Schuell Bioscience, Dassel, Germany). After blocking non-specific protein binding to the membranes with 0.05% polyethylene glycol sorbitan monolaurate (Tween 20) and 5% non-fat dry milk in phosphate buffered saline (PBS), the membranes were incubated overnight with the primary antibodies in blocking buffer at 4° C. […]

The target in series [8] is T3, GSK3-β (Homo sapiens, UniProt P49841).
T3 construct: endogenous in cells; host or cells: SH-SY5Y human neuroblastoma cells (ECACC 94030304)
Kind of series: Ser-9 phosphorylation of GSK3-β in SH-SY5Y neuroblastoma cells (Western blot). It is filed as cell-based. Particulars: 1 mM sodium tungstate, 10 minutes, vs vehicle, FIG. 1A. How it is done: (§4) In FIG. 1 the effect of tungstate (W) on GSK3-β and tau phosphorylation on SH-SY5Y neuroblastoma cells is shown. The data correspond to the mean values and the error bars represent the standard deviation of three independent experiments. A) SH-SY5Y neuroblastoma cells were incubated for 10 minutes in the presence (+) or absence (−) of 1 mM sodium tungstate and their protein extracts were then probed by Western blot with an antibody that recognizes GSK3-β phosphorylated at Ser-9 and total GSK3-β. GSK3-β phosphorylation on Ser-9 causes its inactivation (D. A: Cross et al., Nature, vol. 378, pp. 785-789). […] B) SH-SY5Y cells were incubated with increasing concentrations of tungstate and the degree of tau phosphorylation was determined by Western blot with the tau-1 antibody, which recognizes tau when the serines 198, 199 or 202 are in unphosphorylated form. […] C) SH-SY5Y cells were incubated for 10 minutes in the presence (+) or absence (−) of 1 mM sodium tungstate (W) and the degree of tau phosphorylation was determined by Western blot with the AT180 antibody, which recognizes tau when threonine 231 is in phosphorylated form. […] The total amount of tau protein was determined using the 7.51 antibody.
(§5) The analysis of the degree of the phosphorylation of tau and GSK3 was performed by Western blot with the antibodies mentioned above. […]
Background: In western blotting, separated proteins are transferred to a membrane and probed.

For series [9] the following is noted: cited from earlier work.
Series [10] concerns tau. Kind of series: tau phosphorylation in SH-SY5Y neuroblastoma cells (Western blot, tau-1 and AT-180 antibodies). The class given is cell-based, Human. The procedure: as §4, §5

T2 sequence (P18266 whole entry): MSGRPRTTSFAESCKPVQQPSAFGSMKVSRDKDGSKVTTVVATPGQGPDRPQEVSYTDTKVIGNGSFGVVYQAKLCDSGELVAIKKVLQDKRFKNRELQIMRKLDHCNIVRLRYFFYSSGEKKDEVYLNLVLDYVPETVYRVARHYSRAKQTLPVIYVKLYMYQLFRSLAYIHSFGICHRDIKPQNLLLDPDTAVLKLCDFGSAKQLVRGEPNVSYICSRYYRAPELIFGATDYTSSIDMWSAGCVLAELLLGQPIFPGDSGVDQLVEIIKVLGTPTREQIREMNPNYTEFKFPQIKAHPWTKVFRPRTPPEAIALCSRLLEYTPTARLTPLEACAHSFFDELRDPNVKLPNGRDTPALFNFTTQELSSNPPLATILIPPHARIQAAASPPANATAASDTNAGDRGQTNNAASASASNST
T1 sequence (P18266 whole entry): as above
T3 sequence (P49841 whole entry): as the sequence (P18266 whole entry) above, with M240V, P390T, A392T, T400A, A402T counted along it

For the molecule `O.O.[Na+].[Na+].[O]=[W](=[O])([O-])[O-]` [sodium tungstate, Sodium tungstate dihydrate], the “Ser-9 phosphorylation of GSK3-β in brain (pS9-GSK3 / GSK3-β)” value on GSK3-β [1] was “increased”. The results for the “tau phosphorylation at the site recognized by the tau-1 antibody in brain (tau-1 / 7.51)” value in the series on tau [2] and in the series on tau [6] were “no changes” and “decreased”, respectively. In addition, the “phosphorylation of GSK3 at Ser-9 in brain (pS9-GSK3 / GSK3-β)” value on GSK3 [3] is given as “no changes”. The “phosphorylation of tau (AT180, tau-1) in brain” value in the series on tau [4] is “did not observe significant changes”. For the same molecule, on GSK3 [5], the “phosphorylation of GSK3 (Ser-9) in brain” value is recorded as “did not observe significant changes”. In addition, the “amount of tau protein recognized by the tau-1 antibody in brain” value is “increased” in the series on tau [7] (listed as Tungstate) and “increase” with tau [7] (listed as tungstate). Also, the “phosphorylation of tau at the epitope recognized by the AT180 antibody in brain” value with tau [7] (listed as Tungstate) is recorded as “decreased”; with tau [7] (listed as tungstate) it was “decrease”. Further, the “Ser-9 phosphorylation of GSK3-β (ratio GSK3-β-pS9 / total GSK3-β)” value at GSK3-β [8] is listed as “significantly increased”. The solubility in water result in series [9] is given as “easily dissolved”. The “phosphorylation of the tau epitope recognized by AT-180 (threonine 231; ratio AT180 / 7.51)” value in the series with tau [10] (1 mM sodium tungstate, 10 minutes, FIG. 1C) is recorded as “decrease”. Besides, in the series on tau [10] (increasing concentrations of tungstate, FIG. 1B), the “immunoreactivity with the tau-1 antibody (tau unphosphorylated at serines 198, 199 or 202; ratio tau1 / 7.51)” value is listed as “significant increase”.
